Source: US10392348B2, “2-oxo-3,4-dihydroquinoline compounds as plant growth regulators” (Syngenta Participations AG, priority 2015, dated 2019)
Where two headings read alike, the source gives them in different places.

System: soybean plants (variety S20-G7)
Test: Reduced plant water use in soybean (foliar spray, repeated weighing of pots)
Format: in vivo
Conditions: Glycine max, foliar, Table B1, sprayed at 500 μM, vs negative control
Procedure: Compounds were tested for their effect on reducing plant water use as follows. Each compound was dissolved in a blank emulsifiable concentrate (EC) formulation that was then diluted to the desired concentration with water containing additional surfactant (EXTRAVON 1 g/20 L). The compounds were applied by foliar spray to 12 day old soybean plants (variety S20-G7) grown in controlled environment plant growth chambers. Plant water use during the day was assessed by repeated weighing of the pots in which the plants were grown before and after application of the compounds at the indicated times (expressed in days after application (DAA)). The water use data before application was used to correct any differences in water use arising due to non-treatment effects (e.g. due to differences in plant size). The untransformed water use values were subjected to an analysis of covariance, fitting the effect of treatment and using the baseline water use 1 day before application as a covariate.
The results are expressed compared to negative control treatment (diluted EC formulation without active ingredient but with EXTRAVON 1 g/20 L).
Application of the chemicals (0 DAA) takes place approximately between 08:00 and 09:30 a.m. WU is measured within day time (chamber light is on 06:00 to 20:00) at these timepoints: 0 DAA a.m. (10:30-12:50), 0 DAA p.m. (14:00-19:50), 1 DAA a.m. (7:30-12:50), 1 DAA p.m. (14:00-19:50), 2 DAA a.m. (07:30-12:50) and 2 DAA p.m. (14:00-19:50). The cumulative total WU (0-2.5 DAA) is calculated by summing the WU data mentioned above.

[1] = 0 h, 0 DAA a.m. (10:30-12:50), read-out: % WU 0 DAA AM
[2] = 24 h, 1 DAA a.m. (7:30-12:50), read-out: % WU 1DAA AM
[3] = 24 h, 1 DAA p.m. (14:00-19:50), read-out: % WU 1DAA PM
[4] = 48 h, 2 DAA a.m. (07:30-12:50), read-out: % WU 2 DAA AM
[5] = 48 h, 2 DAA p.m. (14:00-19:50), read-out: % WU 2 DAA PM
[6] = 60 h, cumulative total WU (0-2.5 DAA), read-out: % WU Total 0 to 2.5 DAA

Row | Compound | change in vivo at 500 µM [1] [%] | change in vivo at 500 µM [2] [%] | change in vivo at 500 µM [3] [%] | change in vivo at 500 µM [4] [%] | change in vivo at 500 µM [5] [%] | change in vivo at 500 µM [6] [%]
1 | C=CCN1C(=O)CCc2cc(CNS(=O)(=O)c3ccccc3)ccc21 [Compound 5.001, N-[(1-allyl-2-oxo-3,4-dihydroquinolin-6-yl)methyl]benzenesulfonamide] | -15.1 | -18.7 | -17.4 | -16.5 | -15.6 | -17.1
2 | C=CCN1C(=O)CCc2cc(CNS(=O)(=O)c3ccc(F)cc3F)ccc21 [Compound 5.006, N-[(1-allyl-2-oxo-3,4-dihydroquinolin-6-yl)methyl]-2,4-difluoro-benzenesulfonamide] | -13.6 | -12.5 | -11.5 | -9.7 | -9.9 | -11.4
3 | CCCn1c(=O)ccc2cc(CNS(=O)(=O)c3ccc(F)cc3F)ccc21 [Compound 7.006, 2,4-difluoro-N-[(2-oxo-1-propyl-6-quinolyl)methyl]benzenesulfonamide] | -14.6 | -6.7 | -4.2 | -4.2 | 0 | -6.1
4 | CCCn1c(=O)ccc2cc(CNS(=O)(=O)c3ccc(F)cc3)ccc21 [Compound 7.009, 4-fluoro-N-[(2-oxo-1-propyl-6-quinolyl)methyl]benzenesulfonamide] | -8.1 | -3.6 | -3.5 | -4 | -1.7 | -4.1
5 | O=C1CCc2cc(CNS(=O)(=O)c3ccccc3)ccc2N1CC1CC1 [Compound 10.001, N-[[1-(cyclopropylmethyl)-2-oxo-3,4-dihydroquinolin-6-yl]methyl]benzenesulfonamide] | -25.2 | -23.8 | -22.7 | -14.9 | -14.7 | -20.8
6 | O=C1CCc2cc(CNS(=O)(=O)c3ccc(F)cc3F)ccc2N1CC1CC1 [Compound 10.006, N-[[1-(cyclopropylmethyl)-2-oxo-3,4-dihydroquinolin-6-yl]methyl]-2,4-difluoro-benzenesulfonamide] | -22.4 | -18.5 | -18.2 | -16.9 | -17.8 | -18.6
7 | O=C1CCc2cc(CNS(=O)(=O)c3ccccc3)ccc2N1CC(F)(F)F [Compound 11.001, N-[[2-oxo-1-(2,2,2-trifluoroethyl)-3,4-dihydroquinolin-6-yl]methyl]benzenesulfonamide] | -20.8 | -26.2 | -27.6 | -26.9 | -26.9 | -26.1
8 | O=C1CCc2cc(CNS(=O)(=O)c3ccc(F)cc3F)ccc2N1CC(F)(F)F [Compound 11.006, 2,4-difluoro-N-[[2-oxo-1-(2,2,2-trifluoroethyl)-3,4-dihydroquinolin-6-yl]methyl]benzenesulfonamide] | -13 | -15.3 | -15.7 | -16.4 | -16.5 | -15.8
9 | COCCN1C(=O)CCc2cc(CNS(=O)(=O)c3ccccc3)ccc21 [Compound 13.001, N-[[1-(2-methoxyethyl)-2-oxo-3,4-dihydroquinolin-6-yl]methyl]benzenesulfonamide] | -15.1 | -11 | -11 | -8.9 | -9.2 | -11.1
10 | COCCN1C(=O)CCc2cc(CNS(=O)(=O)c3ccc(F)cc3F)ccc21 [Compound 13.006, 2,4-difluoro-N-[[1-(2-methoxyethyl)-2-oxo-3,4-dihydroquinolin-6-yl]methyl]benzenesulfonamide] | -9.8 | -9.3 | -10.1 | -9.6 | -10.3 | -10.1
11 | CCN1C(=O)CC(C)c2cc(CNS(=O)(=O)c3ccccc3)cc(C)c21 (stereo not drawn) [Compound 16.001, N-[(1-ethyl-4,8-dimethyl-2-oxo-3,4-dihydroquinolin-6-yl)methyl]benzenesulfonamide] | -39 | -49 | -48.1 | -45.7 | -44.5 | -46
12 | CCCN1C(=O)CCc2cc(CNS(=O)(=O)c3ccccc3)cc(F)c21 [Compound 17.001, N-[(8-fluoro-2-oxo-1-propyl-3,4-dihydroquinolin-6-yl)methyl]benzenesulfonamide] | -41.6 | -38 | -36.3 | -27.1 | -26.3 | -34.7
13 | CCN1C(=O)CC(C)c2cc(CNS(=O)(=O)c3ccccc3)cc(F)c21 (stereo not drawn) [Compound 22.001, N-[(1-ethyl-8-fluoro-4-methyl-2-oxo-3,4-dihydroquinolin-6-yl)methyl]benzenesulfonamide] | -46.1 | -55.8 | -53 | -55.1 | -50.1 | -52.1
14 | CC1CC(=O)N(CC(F)(F)F)c2ccc(CNS(=O)(=O)c3ccccc3)cc21 (stereo not drawn) [Compound 23.001, N-[[4-methyl-2-oxo-1-(2,2,2-trifluoroethyl)-3,4-dihydroquinolin-6-yl]methyl]benzenesulfonamide] | -31.3 | -39.7 | -40.8 | -35.9 | -37.3 | -37.7
15 | CC1CC(=O)N(CC2CC2)c2ccc(CNS(=O)(=O)c3ccccc3)cc21 (stereo not drawn) [Compound 24.001, N-[[1-(cyclopropylmethyl)-4-methyl-2-oxo-3,4-dihydroquinolin-6-yl]methyl]benzenesulfonamide] | -35.3 | -42.8 | -42.8 | -39.9 | -38.3 | -40.6
16 | C=CCN1C(=O)CC(C)c2cc(CNS(=O)(=O)c3ccccc3)ccc21 (stereo not drawn) [Compound 25.001, N-[(1-allyl-4-methyl-2-oxo-3,4-dihydroquinolin-6-yl)methyl]benzenesulfonamide] | -28.2 | -41 | -39.6 | -38.1 | -36.7 | -37.9
